From patent US5624936A, “Inhibitors of farnesyl-protein transferase” (Merck & Co., Inc., priority 1996, dated 1997)
Counter-ions that a name gives are not always drawn.

Biological target: T1, human FPTase (Homo sapiens, UniProt P49354+P49356)
T1 construct: made in house
Test: In vitro inhibition of human farnesyl-protein transferase (FPTase)
Assay type: biochemical
Details: 100 nM Ras-CVIM substrate, [3H]-FPP, 30 min; read-out: IC50, inhibitory activity against human FPTase

Row | IC50 [µM] | SMILES
1 | < 10 | CC[C@H](C)[C@@H](CN1Cc2ccccc2C[C@H]1C(=O)N[C@@H](CCSC)C(=O)O)NC(=O)[C@@H]1CCC(=O)N1 [Example 3, Step B, N-[L-Pyroglutamyl-2(S)-amino-3(S)-methylpentyl]-1,2,3,4-tetrahydro-3(S)-isoquinolinecarbonyl-methionine trifluoroacetate]
2 | < 10 | CC[C@H](C)[C@@H](CN1Cc2ccccc2C[C@H]1C(=O)N[C@@H](CCSC)C(=O)O)NC(=O)Cc1c[nH]cn1 [Examples 1. Step G, N-[(1H-imidazol-4-ylacetyl)-2(S)-amino-3(S)-methylpentyl]-1,2,3,4-tetrahydro-3(S)-isoquinolinecarbonyl-methionine trifluoroacetate]
